Data on seven compounds can be found in US7285534B2, “Corticotropin-releasing hormone analogs and their uses” (The Regents of the University of California, priority 2002, dated 2007).

Entries after “also recorded” stand apart in the source; their conditions may differ. Like-named read-outs stand apart in the source and are kept apart here. Residues, ends and D or L forms follow the SMILES beside them.

The subject of data set [1] is S91 mouse Cloudman cells (cell line M3). Briefly: In vitro anti-proliferation assay, Cloudman melanoma cell counts. The settings on record: for EC50: Cloudman melanoma cells; for Anti-proliferative effect on Cloudman melanoma cells (in words): in vitro. In kind it is cell-based. How it is done:
S91 mouse Cloudman cells (cell line M3) were obtained from the American Type Culture Collection. Hams F-10 medium, fetal bovine serum, and horse serum were obtained from Gibco BRL. Cloudman cells were cultured in Ham's F-10 medium supplemented with 5% horse serum, 2.5% fetal bovine serum, and 1% penicillin/streptomycin in a humidified incubator with 5% C02 at 37° C. Media were changed every second day.
Cells were plated at a concentration of ˜20,000 cells per well in Ham's F-10 medium supplemented with 5% horse serum, 2.5% fetal bovine serum and 1% penicillin/streptomycin into tissue-culture-12-well plates. Test peptides or sterile water containing 0.5% BSA (vehicle control) were added to culture medium prior to plating, and cells were allowed to adhere overnight in a humidified incubator with 5% CO2 at 37° C. Culture medium containing peptides and culture medium containing vehicle control were changed daily. For counting, cells were detached with 200 μL of 0.25% trypsin. Detachment levels were verified under a light microscope. After detachment, cell suspensions were transferred to 1.5-mL Eppendorf tubes, vigorously pipetted for uniform suspension, and cell number in 10 μL of cell suspension was counted in a hemacytometer under a light microscope.

Data set [2] can be described thus: Hypotensive activity relative to CRH. The settings on record: in vivo.
Another data set concerns W256 cells. As to conditions: cited from earlier work.
The test system of data set [3] is W256 rat mammary carcinoma. As to conditions: 100 micrograms/kg subcutaneously twice a day for 3 days; cited from earlier work.
[4] abbreviates: read-out: EC50 values for CRH peptides versus Cloudman melanoma.
[5] abbreviates: Cloudman cells, relative to CRH.

Regarding `CC[C@H](C)[C@H](NC(=O)[C@@H](NC(=O)[C@H](CCC(=O)O)NC(=O)[C@H](CCSC)NC(=O)[C@H](CC(C)C)NC(=O)[C@H](CCCCN)NC(=O)[C@H](CCCNC(=N)N)NC(=O)[C@H](CC(N)=O)NC(=O)[C@H](CO)NC(=O)[C@H](Cc1c[nH]cn1)NC(=O)[C@H](C)NC(=O)[C@H](CCC(N)=O)NC(=O)[C@H](CCC(N)=O)NC(=O)[C@H](C)NC(=O)[C@H](CC(C)C)NC(=O)[C@H](CCC(N)=O)NC(=O)[C@H](CCC(=O)O)NC(=O)[C@H](C)NC(=O)[C@H](CCCNC(=N)N)NC(=O)[C@H](C)NC(=O)[C@H](CCSC)NC(=O)[C@@H](CCC(=O)O)NC(=O)[C@H](CC(C)C)NC(=O)[C@@H](NC(=O)[C@H](CCC(=O)O)NC(=O)[C@H](CCCNC(=N)N)NC(=O)[C@H](CC(C)C)NC(=O)[C@H](CC(C)C)NC(=O)[C@H](Cc1c[nH]cn1)NC(=O)[C@H](Cc1ccccc1)NC(=O)[C@@H](NC(=O)[C@H](CC(C)C)NC(=O)[C@H](CC(=O)O)NC(=O)[C@H](CC(C)C)NC(=O)[C@H](CO)NC(=O)[C@@H](NC(=O)[C@@H]1CCCN1C(=O)[C@@H]1CCCN1C(=O)[C@H](CCC(=O)O)NC(=O)[C@H](CCC(=O)O)NC(=O)[C@@H](N)CO)[C@@H](C)CC)[C@@H](C)O)C(C)C)[C@@H](C)CC)C(N)=O` [II, [D-Glu^20]-CRH], the EC50 – broadly, the concentration needed to bring the measured effect to its halfway point – in data set [1] (setting [4]) was determined as 16 pM. Further, the “Anti-proliferative effect on Cloudman melanoma cells (in words)” value (“Anti-proliferative effect … (in words)” below) in data set [1] is given as “retained; also recorded: significantly inhibit proliferation”. Further, in data set [2], the “Hypotensive activity relative to CRH” value is on record as “diminished”.
With `CC[C@H](C)[C@H](NC(=O)[C@@H](NC(=O)[C@H](CCC(=O)O)NC(=O)[C@H](CCSC)NC(=O)[C@H](CC(C)C)NC(=O)[C@H](CCCCN)NC(=O)[C@H](CCCNC(=N)N)NC(=O)[C@H](CC(N)=O)NC(=O)[C@H](CO)NC(=O)[C@H](Cc1c[nH]cn1)NC(=O)[C@H](C)NC(=O)[C@H](CCC(N)=O)NC(=O)[C@H](CCC(N)=O)NC(=O)[C@H](C)NC(=O)[C@H](CC(C)C)NC(=O)[C@H](CCC(N)=O)NC(=O)[C@H](CCC(=O)O)NC(=O)[C@H](C)NC(=O)[C@H](CCCNC(=N)N)NC(=O)[C@H](C)NC(=O)[C@H](CCSC)NC(=O)[C@H](CCC(=O)O)NC(=O)[C@H](CC(C)C)NC(=O)[C@@H](NC(=O)[C@H](CCC(=O)O)NC(=O)[C@H](CCCNC(=N)N)NC(=O)[C@H](CC(C)C)NC(=O)[C@H](CC(C)C)NC(=O)[C@H](Cc1c[nH]cn1)NC(=O)[C@H](Cc1ccccc1)NC(=O)[C@@H](NC(=O)[C@H](CC(C)C)NC(=O)[C@H](CC(=O)O)NC(=O)[C@H](CC(C)C)NC(=O)[C@H](CO)NC(=O)[C@@H](NC(=O)[C@H]1CCCN1C(=O)[C@@H]1CCCN1C(=O)[C@H](CCC(=O)O)NC(=O)[C@H](CCC(=O)O)NC(=O)[C@@H](N)CO)[C@@H](C)CC)[C@@H](C)O)C(C)C)[C@@H](C)CC)C(N)=O` [III, [D-Pro^5]-CRH], in data set [1] (setting [5]), the “EC50 fold greater than CRH” value is reported as 10 fold. Also, the EC50 in data set [1] (setting [4]) amounted to 82 pM.
For the compound `CC[C@H](C)[C@H](NC(=O)[C@@H](NC(=O)[C@H](CCC(=O)O)NC(=O)[C@H](CCSC)NC(=O)[C@H](CC(C)C)NC(=O)[C@H](CCCCN)NC(=O)[C@H](CCCNC(=N)N)NC(=O)[C@H](CC(N)=O)NC(=O)[C@H](CO)NC(=O)[C@H](Cc1c[nH]cn1)NC(=O)[C@H](C)NC(=O)[C@H](CCC(N)=O)NC(=O)[C@H](CCC(N)=O)NC(=O)[C@H](C)NC(=O)[C@H](CC(C)C)NC(=O)[C@H](CCC(N)=O)NC(=O)[C@H](CCC(=O)O)NC(=O)[C@H](C)NC(=O)[C@H](CCCNC(=N)N)NC(=O)[C@H](C)NC(=O)[C@H](CCSC)NC(=O)[C@H](CCC(=O)O)NC(=O)[C@H](CC(C)C)NC(=O)[C@@H](NC(=O)[C@H](CCC(=O)O)NC(=O)[C@H](CCCNC(=N)N)NC(=O)[C@H](CC(C)C)NC(=O)[C@H](CC(C)C)NC(=O)[C@H](Cc1c[nH]cn1)NC(=O)[C@H](Cc1ccccc1)NC(=O)[C@@H](NC(=O)[C@H](CC(C)C)NC(=O)[C@H](CC(=O)O)NC(=O)[C@H](CC(C)C)NC(=O)[C@H](CO)NC(=O)[C@@H](NC(=O)[C@@H]1CCCN1C(=O)[C@@H]1CCCN1C(=O)[C@H](CCC(=O)O)NC(=O)[C@H](CCC(=O)O)NC(=O)[C@@H](N)CO)[C@@H](C)CC)[C@@H](C)O)C(C)C)[C@@H](C)CC)C(N)=O` [Peptide I, CRH], the “Time of maximum suppression of proliferation after treatment” value in data set [1] (Cloudman cells) was “about 96 hr”. Moreover, the EC50 turned out to be 9 pM in data set [1] (96 hr, read-out: EC50 of CRH after 96 hr) and 8.6 pM in data set [1] (setting [4]). The “Anti-proliferative effect … (in words)” value in data set [1] is listed as “Significant anti-proliferative effects”. The “Antiproliferative effects in in vitro cultures of W256 cells” value in the data set with W256 cells is recorded as “exhibited antiproliferative effects”. In addition, the “Inhibition of growth of intracerebrally-injected W256 tumor cells” value in data set [3] was “significant inhibition of growth”.
Regarding `CC[C@H](C)[C@H](NC(=O)[C@H](CO)NC(=O)[C@H](CC(C)C)NC(=O)[C@H](CO)NC(=O)[C@@H]1CCCN1C(=O)[C@H](CC(N)=O)NC(=O)[C@@H](N)CC(=O)O)C(=O)N[C@@H](CC(=O)O)C(=O)N[C@@H](CC(C)C)C(=O)N[C@H](C(=O)N[C@@H](Cc1ccccc1)C(=O)N[C@@H](Cc1c[nH]cn1)C(=O)N[C@@H](CC(C)C)C(=O)N[C@@H](CC(C)C)C(=O)N[C@@H](CCCNC(=N)N)C(=O)N[C@H](C(=O)N[C@@H](CC(C)C)C(=O)N[C@@H](CC(C)C)C(=O)N[C@@H](CCC(=O)O)C(=O)N[C@@H](CC(C)C)C(=O)N[C@@H](C)C(=O)N[C@@H](CCCNC(=N)N)C(=O)N[C@H](C(=O)N[C@@H](CCC(N)=O)C(=O)N[C@@H](CO)C(=O)N[C@@H](CCC(N)=O)C(=O)N[C@@H](CCCNC(=N)N)C(=O)N[C@@H](CCC(=O)O)C(=O)N[C@@H](CCCNC(=N)N)C(=O)N[C@@H](C)C(=O)N[C@@H](CCC(=O)O)C(=O)N[C@@H](CCC(N)=O)C(=O)N[C@@H](CC(N)=O)C(=O)N[C@@H](CCCNC(=N)N)C(=O)N[C@H](C(=O)N[C@H](C(=O)N[C@@H](Cc1ccccc1)C(=O)N[C@@H](CC(=O)O)C(=O)N[C@@H](CO)C(=O)N[C@H](C(N)=O)C(C)C)[C@@H](C)CC)[C@@H](C)CC)[C@@H](C)O)[C@@H](C)O)[C@@H](C)O` [VI, Urocortin] (H-DNPSLSIDLTFHLLRTLLELARTQSQRERAEQNRIIFDSV-NH2), the EC50 in data set [1] (setting [4]) was determined as 9.5 pM. Besides, in data set [1], the “Anti-proliferative effect … (in words)” value was “highly effective in suppressing proliferation”.
Taken in the same sequence, the figures for `CC[C@H](C)[C@H](NC(=O)[C@@H](NC(=O)[C@H](CC(=O)O)NC(=O)[C@H](CC(C)C)NC(=O)[C@H](CC(C)C)NC(=O)[C@H](CC(C)C)NC(=O)[C@H](CCCNC(=N)N)NC(=O)[C@H](CC(N)=O)NC(=O)[C@H](CC(N)=O)NC(=O)[C@H](C)NC(=O)[C@H](C)NC(=O)[C@H](CCC(N)=O)NC(=O)[C@H](CCC(N)=O)NC(=O)[C@H](CCCCN)NC(=O)[C@H](CCC(=O)O)NC(=O)[C@H](CCCCN)NC(=O)[C@H](CCC(=O)O)NC(=O)[C@H](CCC(N)=O)NC(=O)[C@H](CCCCN)NC(=O)[C@H](CCC(=O)O)NC(=O)[C@@H](NC(=O)[C@H](CCC(=O)O)NC(=O)[C@@H](NC(=O)[C@H](CCSC)NC(=O)[C@H](CCCCN)NC(=O)[C@H](CCCNC(=N)N)NC(=O)[C@H](CC(C)C)NC(=O)[C@H](CC(C)C)NC(=O)[C@H](CCC(=O)O)NC(=O)[C@H](CC(C)C)NC(=O)[C@H](CO)NC(=O)[C@H](CC(C)C)NC(=O)[C@H](CC(=O)O)NC(=O)[C@@H](NC(=O)[C@H](CO)NC(=O)[C@@H](NC(=O)[C@@H]1CCCN1C(=O)[C@@H]1CCCN1C(=O)CNC(=O)[C@@H]1CCC(=O)N1)[C@@H](C)CC)[C@@H](C)CC)[C@@H](C)CC)[C@@H](C)CC)[C@@H](C)O)C(N)=O` [VII, Sauvagine] were 7.8 pM and “highly effective in suppressing proliferation”.
As to “acetyl-cyclo (30-33)[D-Phe^12, Nle^18, D-Glu^20, Nle^21, Glu^30, D-Ala^32]-urotensin 1(4-41) [Peptide V]”, in data set [1] (setting [5]), the “EC50 fold lower than that of CRH” value came to 10 fold. Also, the “Anti-proliferative effect … (in words)” value in data set [1] was “highly effective in suppressing proliferation”.
α-helical-CRH(9-41): the “Inhibition of the anti-proliferative effect of CRH peptides by the CRH receptor antagonist” value in data set [1] (Cloudman cells) is recorded as “inhibited”.
